# Source: article PMC10287566, “Signaling-specific inhibition of the CB1 receptor for cannabis use disorder: phase 1 and phase 2a randomized trials” (Nature Medicine, 2023)
# Where “and” joins values, the source holds several entries; their conditions need not be identical. Equal entries are not always repeated.
# What was measured:
# Assay in all cases: Eurofins binding screen
# [1] = biological target: Adenosine A1 (Homo sapiens, UniProt P30542)
# [2] = biological target: Adenosine A3 (Homo sapiens, UniProt P0DMS8)
# [3] = biological target: Angiotensin-II AT1 (Homo sapiens, UniProt P30556)
# [4] = test system: Bombesin BB; conditions: 10 µM
# [5] = biological target: Bradykinin B2 (Homo sapiens, UniProt P30411)
# [6] = biological target: Cannabinoid CB1 (Homo sapiens, UniProt P21554)
# Sequence of Cannabinoid CB1 (P21554 whole entry): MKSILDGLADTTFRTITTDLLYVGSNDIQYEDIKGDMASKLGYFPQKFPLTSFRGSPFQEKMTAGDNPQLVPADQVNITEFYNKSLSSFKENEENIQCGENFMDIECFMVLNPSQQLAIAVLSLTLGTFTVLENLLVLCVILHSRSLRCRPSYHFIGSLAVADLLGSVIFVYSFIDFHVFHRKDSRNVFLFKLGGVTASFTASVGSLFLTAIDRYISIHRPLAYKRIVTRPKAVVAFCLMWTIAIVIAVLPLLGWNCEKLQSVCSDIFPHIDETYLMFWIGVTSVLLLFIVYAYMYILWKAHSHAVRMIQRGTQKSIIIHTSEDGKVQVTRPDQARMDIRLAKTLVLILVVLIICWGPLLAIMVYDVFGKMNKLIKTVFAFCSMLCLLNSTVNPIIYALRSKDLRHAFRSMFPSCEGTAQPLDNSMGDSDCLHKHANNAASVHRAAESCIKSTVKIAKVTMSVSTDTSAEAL
# [7] = biological target: Cannabinoid CB2 (Homo sapiens, UniProt P34972)
# [8] = biological target: Chemokines CCR1 (Homo sapiens, UniProt P32246)
# Sequence of Chemokines CCR1 (P32246 whole entry): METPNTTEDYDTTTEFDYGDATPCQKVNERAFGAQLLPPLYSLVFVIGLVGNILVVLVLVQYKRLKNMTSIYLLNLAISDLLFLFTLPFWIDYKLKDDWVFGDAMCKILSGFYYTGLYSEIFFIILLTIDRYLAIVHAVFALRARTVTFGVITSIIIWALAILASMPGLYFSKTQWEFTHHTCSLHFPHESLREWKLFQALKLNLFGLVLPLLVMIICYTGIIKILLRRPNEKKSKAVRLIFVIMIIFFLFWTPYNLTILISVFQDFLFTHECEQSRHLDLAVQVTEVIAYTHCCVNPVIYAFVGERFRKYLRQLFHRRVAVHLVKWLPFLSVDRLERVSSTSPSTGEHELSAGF
# [9] = biological target: Cholecystokinin CCK2 (CCKB) (Homo sapiens, UniProt P32239)
# Sequence of Cholecystokinin CCK2 (CCKB) (P32239 whole entry): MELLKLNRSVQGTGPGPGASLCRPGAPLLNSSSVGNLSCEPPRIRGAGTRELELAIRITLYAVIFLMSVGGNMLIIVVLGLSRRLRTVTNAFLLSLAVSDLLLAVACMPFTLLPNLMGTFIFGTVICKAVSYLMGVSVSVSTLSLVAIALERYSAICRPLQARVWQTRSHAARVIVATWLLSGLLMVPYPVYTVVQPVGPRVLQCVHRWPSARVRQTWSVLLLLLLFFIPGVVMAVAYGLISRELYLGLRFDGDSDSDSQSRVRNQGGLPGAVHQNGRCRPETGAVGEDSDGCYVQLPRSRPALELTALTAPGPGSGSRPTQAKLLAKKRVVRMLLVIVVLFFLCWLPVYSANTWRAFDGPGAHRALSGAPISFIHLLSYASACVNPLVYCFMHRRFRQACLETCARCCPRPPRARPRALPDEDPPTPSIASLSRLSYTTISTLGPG
# [10] = biological target: Dopamine D1 (Homo sapiens, UniProt P21728)
# [11] = biological target: Dopamine D3 (Homo sapiens, UniProt P35462)
# [12] = biological target: Dopamine D5 (Homo sapiens, UniProt P21918)
# [13] = biological target: Endothelin ETA (Homo sapiens, UniProt P25101)
# [14] = biological target: Galanin GAL1 (Homo sapiens, UniProt P47211)
# [15] = biological target: Galanin GAL2 (Homo sapiens, UniProt O43603)
# [16] = biological target: Histamine H1 (Homo sapiens, UniProt P35367)
# [17] = biological target: Histamine H2 (Homo sapiens, UniProt P25021)
# Sequence of Histamine H2 (P25021 whole entry): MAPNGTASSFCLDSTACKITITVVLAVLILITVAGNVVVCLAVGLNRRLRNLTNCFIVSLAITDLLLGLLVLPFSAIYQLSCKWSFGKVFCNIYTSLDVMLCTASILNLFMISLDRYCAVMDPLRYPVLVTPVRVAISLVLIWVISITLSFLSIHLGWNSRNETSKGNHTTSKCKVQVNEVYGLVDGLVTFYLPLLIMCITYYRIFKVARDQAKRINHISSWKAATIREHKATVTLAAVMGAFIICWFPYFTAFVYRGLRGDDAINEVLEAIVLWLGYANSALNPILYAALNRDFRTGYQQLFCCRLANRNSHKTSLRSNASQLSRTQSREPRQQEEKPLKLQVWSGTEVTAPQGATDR
# [18] = biological target: Melanocortin MC4 (Homo sapiens, UniProt P32245)
# [19] = biological target: Melatonin MT1 (ML1A) (Homo sapiens, UniProt P48039)
# [20] = biological target: Muscarinic M1 (Homo sapiens, UniProt P11229)
# Sequence of Muscarinic M1 (P11229 whole entry): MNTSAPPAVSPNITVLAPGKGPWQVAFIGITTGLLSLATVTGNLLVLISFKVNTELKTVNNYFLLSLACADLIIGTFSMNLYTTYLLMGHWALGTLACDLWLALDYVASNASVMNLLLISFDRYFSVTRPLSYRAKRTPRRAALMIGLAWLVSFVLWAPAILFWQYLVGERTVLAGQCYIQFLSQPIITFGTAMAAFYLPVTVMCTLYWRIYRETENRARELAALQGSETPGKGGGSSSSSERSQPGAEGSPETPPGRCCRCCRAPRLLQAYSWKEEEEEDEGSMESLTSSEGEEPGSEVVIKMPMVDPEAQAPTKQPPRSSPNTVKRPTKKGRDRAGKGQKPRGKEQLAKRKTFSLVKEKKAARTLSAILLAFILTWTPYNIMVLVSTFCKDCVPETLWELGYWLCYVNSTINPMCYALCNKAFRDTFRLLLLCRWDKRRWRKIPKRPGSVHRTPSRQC
# [21] = biological target: Muscarinic M5 (Homo sapiens, UniProt P08912)
# [22] = biological target: Neurokinin NK3 (Homo sapiens, UniProt P29371)
# [23] = biological target: Neuropeptide Y Y1 (Homo sapiens, UniProt P25929)
# [24] = biological target: Opioid delta2 (DOP) (Homo sapiens, UniProt P41143)
# Sequence of Opioid delta2 (DOP) (P41143 whole entry): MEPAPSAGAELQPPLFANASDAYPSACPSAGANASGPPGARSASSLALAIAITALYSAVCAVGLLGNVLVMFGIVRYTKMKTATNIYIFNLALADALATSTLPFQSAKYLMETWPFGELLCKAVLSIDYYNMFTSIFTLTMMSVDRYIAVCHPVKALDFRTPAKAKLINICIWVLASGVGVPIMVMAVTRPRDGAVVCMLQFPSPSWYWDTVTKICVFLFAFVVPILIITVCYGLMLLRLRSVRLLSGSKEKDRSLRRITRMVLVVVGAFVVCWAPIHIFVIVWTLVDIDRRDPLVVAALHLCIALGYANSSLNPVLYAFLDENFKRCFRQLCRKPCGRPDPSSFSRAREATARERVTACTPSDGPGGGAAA
# [25] = biological target: Opioid mu (MOP) (Homo sapiens, UniProt P35372)
# Sequence of Opioid mu (MOP) (P35372 whole entry): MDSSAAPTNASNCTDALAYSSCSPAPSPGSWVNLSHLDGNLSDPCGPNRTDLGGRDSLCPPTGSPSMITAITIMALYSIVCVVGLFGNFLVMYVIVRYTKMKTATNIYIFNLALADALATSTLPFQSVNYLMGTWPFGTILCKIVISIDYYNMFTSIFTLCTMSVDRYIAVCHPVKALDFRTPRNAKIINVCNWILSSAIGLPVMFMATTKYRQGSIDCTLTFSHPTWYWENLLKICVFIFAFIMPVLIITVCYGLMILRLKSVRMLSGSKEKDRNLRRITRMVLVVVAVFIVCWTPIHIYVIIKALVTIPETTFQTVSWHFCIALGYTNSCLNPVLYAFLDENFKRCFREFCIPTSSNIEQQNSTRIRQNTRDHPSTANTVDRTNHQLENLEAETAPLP
# [26] = biological target: Neurotensin NTS1 (NT1) (Homo sapiens, UniProt P30989)
# [27] = biological target: Prostanoid EP4 (Homo sapiens, UniProt P35408)
# [28] = biological target: Prostanoid IP (PGI2) (Homo sapiens, UniProt P43119)
# [29] = test system: Somatostatin sst; conditions: 10 µM
# [30] = biological target: Vasoactive intestinal peptide VPAC1 (VIP1) (Homo sapiens, UniProt P32241)
# [31] = biological target: Serotonin 5-HT1A (Homo sapiens, UniProt P08908)
# [32] = biological target: Serotonin 5-HT5a (Homo sapiens, UniProt P47898)
# [33] = biological target: Serotonin 5-HT7 (Homo sapiens, UniProt P34969)
# Sequence of Serotonin 5-HT7 (P34969 whole entry): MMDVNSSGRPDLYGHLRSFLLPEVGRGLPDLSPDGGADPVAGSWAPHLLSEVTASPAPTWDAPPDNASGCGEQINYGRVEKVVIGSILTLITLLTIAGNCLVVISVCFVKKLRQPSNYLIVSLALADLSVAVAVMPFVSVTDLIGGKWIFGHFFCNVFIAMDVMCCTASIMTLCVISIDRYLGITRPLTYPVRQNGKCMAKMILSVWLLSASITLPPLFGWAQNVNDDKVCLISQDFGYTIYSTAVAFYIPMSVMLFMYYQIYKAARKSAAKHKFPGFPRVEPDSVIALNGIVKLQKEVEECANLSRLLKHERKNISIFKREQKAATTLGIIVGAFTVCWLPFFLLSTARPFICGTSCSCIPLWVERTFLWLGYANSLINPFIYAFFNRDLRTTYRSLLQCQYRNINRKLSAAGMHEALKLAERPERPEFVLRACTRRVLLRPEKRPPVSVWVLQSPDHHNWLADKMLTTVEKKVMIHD
# [34] = test system: Calcium channels Ca2+-L; conditions: 10 µM
# [35] = test system: Potassium channels SKCa; conditions: 10 µM
# [36] = test system: Purinergic channels P2X; conditions: 10 µM
# [37] = biological target: Dopamine transporter DAT (Homo sapiens, UniProt Q01959)
# [38] = biological target: Norepinephrine transporter NET (Homo sapiens, UniProt P23975)
# [39] = test system: TNF-alpha; conditions: 10 µM
# [40] = test system: Cl- channel; conditions: 10 µM
# [41] = test system: sigma; conditions: 10 µM
# [42] = test system: ER; conditions: 10 µM
# [43] = biological target: PR (progesterone receptor) (Homo sapiens, UniProt P06401)
# Sequence of PR (progesterone receptor) (P06401 whole entry): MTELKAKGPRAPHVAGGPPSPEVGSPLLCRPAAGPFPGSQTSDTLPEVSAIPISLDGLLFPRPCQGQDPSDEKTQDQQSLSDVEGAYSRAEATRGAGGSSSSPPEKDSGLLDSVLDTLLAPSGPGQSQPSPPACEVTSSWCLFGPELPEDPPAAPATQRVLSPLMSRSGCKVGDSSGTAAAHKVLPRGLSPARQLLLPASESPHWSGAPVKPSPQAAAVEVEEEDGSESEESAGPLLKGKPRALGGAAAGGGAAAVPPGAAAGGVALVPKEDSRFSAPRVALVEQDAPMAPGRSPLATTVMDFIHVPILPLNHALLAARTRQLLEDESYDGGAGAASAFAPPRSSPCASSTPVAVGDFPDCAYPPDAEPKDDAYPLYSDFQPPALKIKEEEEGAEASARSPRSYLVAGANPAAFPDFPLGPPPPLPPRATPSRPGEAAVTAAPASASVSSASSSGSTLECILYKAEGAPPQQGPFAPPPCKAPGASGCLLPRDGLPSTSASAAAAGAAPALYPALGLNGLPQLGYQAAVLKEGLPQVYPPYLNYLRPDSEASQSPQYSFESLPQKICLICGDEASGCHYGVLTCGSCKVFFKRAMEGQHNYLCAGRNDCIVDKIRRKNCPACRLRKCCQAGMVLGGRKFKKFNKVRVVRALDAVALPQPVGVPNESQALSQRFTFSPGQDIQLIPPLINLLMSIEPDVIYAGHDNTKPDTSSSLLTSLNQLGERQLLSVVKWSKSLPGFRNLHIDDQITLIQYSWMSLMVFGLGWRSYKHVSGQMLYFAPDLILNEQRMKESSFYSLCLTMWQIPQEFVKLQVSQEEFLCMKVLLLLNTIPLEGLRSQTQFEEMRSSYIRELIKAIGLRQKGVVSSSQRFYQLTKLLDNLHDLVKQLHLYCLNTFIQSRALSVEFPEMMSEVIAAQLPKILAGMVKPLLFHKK
# [44] = biological target: PPAR gamma (Homo sapiens, UniProt P37231)
# [45] = biological target: PXR (Homo sapiens, UniProt O75469)
# Sequence of PXR (O75469 whole entry): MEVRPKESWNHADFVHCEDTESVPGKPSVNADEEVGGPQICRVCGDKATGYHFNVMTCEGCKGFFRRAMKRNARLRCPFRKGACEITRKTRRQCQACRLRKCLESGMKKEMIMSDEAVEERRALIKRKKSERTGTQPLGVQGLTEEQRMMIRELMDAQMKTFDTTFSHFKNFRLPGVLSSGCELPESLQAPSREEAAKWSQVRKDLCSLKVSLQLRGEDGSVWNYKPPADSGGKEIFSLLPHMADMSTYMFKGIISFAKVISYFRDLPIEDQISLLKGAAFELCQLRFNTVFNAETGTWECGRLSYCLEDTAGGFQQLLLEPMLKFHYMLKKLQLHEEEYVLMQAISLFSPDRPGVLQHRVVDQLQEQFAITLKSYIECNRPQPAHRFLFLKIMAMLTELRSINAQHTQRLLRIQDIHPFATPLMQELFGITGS
# [46] = read-out: Percent inhibition of control specific binding
structure (smiles),measurement,setting,value
"COc1ccc(CO[C@H]2CC[C@@]3(C)C(=CC[C@H]4[C@@H]5CC[C@H](C(C)=O)[C@@]5(C)CC[C@@H]43)C2)cc1 [AEF0117, 3β-(4-methoxybenzyloxy)pregn-5-en-20-one]",inhibition at 10 µM,[1]; [46],14%
same,inhibition at 10 µM,[2]; [46],-20%
same,inhibition at 10 µM,[3]; [46],7%
same,Percent inhibition of control specific binding,[4],12%
same,inhibition at 10 µM,[5]; [46],-1%
same,inhibition at 10 µM,[6]; [46],11%
same,inhibition at 10 µM,[7]; [46],-2%
same,inhibition at 10 µM,[8]; [46],5%
same,inhibition at 10 µM,[9]; [46],-35%
same,inhibition at 10 µM,[10]; [46],-12%
same,inhibition at 10 µM,[11]; [46],2%
same,inhibition at 10 µM,[12]; [46],-2%
same,inhibition at 10 µM,[13]; [46],-4%
same,inhibition at 10 µM,[14]; [46],-4%
same,inhibition at 10 µM,[15]; [46],-9%
same,inhibition at 10 µM,[16]; [46],4%
same,inhibition at 10 µM,[17]; [46],3%
same,inhibition at 10 µM,[18]; [46],-8%
same,inhibition at 10 µM,[19]; [46],-11%
same,inhibition at 10 µM,[20]; [46],-14%
same,inhibition at 10 µM,[21]; [46],-5%
same,inhibition at 10 µM,[22]; [46],-1%
same,inhibition at 10 µM,[23]; [46],-9%
same,inhibition at 10 µM,[24]; [46],-4%
same,inhibition at 10 µM,[25]; [46],-10%
same,inhibition at 10 µM,[26]; [46],-14%
same,inhibition at 10 µM,[27]; [46],10%
same,inhibition at 10 µM,[28]; [46],-4%
same,Percent inhibition of control specific binding,[29],-4%
same,inhibition at 10 µM,[30]; [46],-4%
same,inhibition at 10 µM,[31]; [46],-11%
same,inhibition at 10 µM,[32]; [46],1%
same,inhibition at 10 µM,[33]; [46],-1%
same,Percent inhibition of control specific binding,[34],-1%
same,Percent inhibition of control specific binding,[35],12%
same,Percent inhibition of control specific binding,[36],-29%
same,inhibition at 10 µM,[37]; [46],0%
same,inhibition at 10 µM,[38]; [46],-5%
same,Percent inhibition of control specific binding,[39],-5%
same,Percent inhibition of control specific binding,[40],-4%
same,Percent inhibition of control specific binding,[41],-4%
same,Percent inhibition of control specific binding,[42],31%
same,inhibition at 10 µM,[43]; [46],29%
same,inhibition at 10 µM,[44]; [46],7%
same,inhibition at 10 µM,[45]; [46],7%
"CC(=O)[C@H]1CC[C@H]2[C@@H]3CC=C4C[C@@H](O)CC[C@]4(C)[C@H]3CC[C@]12C [pregnenolone, reference compound]",Percent inhibition of control specific binding,[1]; 10 µM,-25%
same,Percent inhibition of control specific binding,[2]; 10 µM,11%
same,Percent inhibition of control specific binding,[3]; 10 µM,-28%
same,Percent inhibition of control specific binding,[4],-18%
same,Percent inhibition of control specific binding,[5]; 10 µM,-9%
same,Percent inhibition of control specific binding,[6]; 10 µM,10%
same,Percent inhibition of control specific binding,[7]; 10 µM,-19%
same,Percent inhibition of control specific binding,[8]; 10 µM,-10%
same,Percent inhibition of control specific binding,[9]; 10 µM,-38%
same,Percent inhibition of control specific binding,[10]; 10 µM,-8%
same,Percent inhibition of control specific binding,[11]; 10 µM,11%
same,Percent inhibition of control specific binding,[12]; 10 µM,-4%
same,Percent inhibition of control specific binding,[13]; 10 µM,-3%
same,Percent inhibition of control specific binding,[14]; 10 µM,-16%
same,Percent inhibition of control specific binding,[15]; 10 µM,1%
same,Percent inhibition of control specific binding,[16]; 10 µM,0%
same,Percent inhibition of control specific binding,[17]; 10 µM,9%
same,Percent inhibition of control specific binding,[18]; 10 µM,-15%
same,Percent inhibition of control specific binding,[19]; 10 µM,26%
same,Percent inhibition of control specific binding,[20]; 10 µM,-14%
same,Percent inhibition of control specific binding,[21]; 10 µM,8%
same,Percent inhibition of control specific binding,[22]; 10 µM,11%
same,Percent inhibition of control specific binding,[23]; 10 µM,-11%
same,Percent inhibition of control specific binding,[24]; 10 µM,9%
same,Percent inhibition of control specific binding,[25]; 10 µM,-5%
same,Percent inhibition of control specific binding,[26]; 10 µM,-19%
same,Percent inhibition of control specific binding,[27]; 10 µM,21%
same,Percent inhibition of control specific binding,[28]; 10 µM,-12%
same,Percent inhibition of control specific binding,[29],-8%
same,Percent inhibition of control specific binding,[30]; 10 µM,-10%
same,Percent inhibition of control specific binding,[31]; 10 µM,12%
same,Percent inhibition of control specific binding,[32]; 10 µM,11%
same,Percent inhibition of control specific binding,[33]; 10 µM,11%
same,Percent inhibition of control specific binding,[34],-19%
same,Percent inhibition of control specific binding,[35],-8%
same,Percent inhibition of control specific binding,[36],13%
same,Percent inhibition of control specific binding,[37]; 10 µM,-12%
same,Percent inhibition of control specific binding,[38]; 10 µM,-12%
same,Percent inhibition of control specific binding,[39],4%
same,Percent inhibition of control specific binding,[40],29%
same,Percent inhibition of control specific binding,[41],26%
same,Percent inhibition of control specific binding,[42],26%
same,Percent inhibition of control specific binding,[43]; 10 µM,> 80% and 87%
same,Percent inhibition of control specific binding,[44]; 10 µM,4%
same,Percent inhibition of control specific binding,[45]; 10 µM,15%
